Data set [1] relates to SARS-CoV-2. Put plainly: microbe, parasite or virus in culture. It is filed as cell-based. The following applies: for inhibition of SARS-CoV-2 by monoterpenes (in words): 72 h incubation.
Data set [2] can be described thus: Cytotoxicity assay (MTS tetrazolium) on Vero 76 cells. The note with it: African green monkey.
Data set [3] is described as follows: in vitro. The note with it: African green monkey.
Setting [4] is: Severe acute respiratory syndrome coronavirus 2, Vero 76, 72 h, monoterpenes, infected Vero 76 cells, 0.02 MOI, 72 h, MTT, tested 1,000–4.91 μM, mean ± SD, read-out: EC50 SARS-Cov2.
The mark [5] stands for this setting: monoterpenes, infected Vero 76 cells, 0.02 MOI, 72 h, MTT, tested 1,000–4.91 μM, mean ± SD, read-out: EC50 SARS-Cov2.
Setting [6] is: Severe acute respiratory syndrome coronavirus 2, Vero 76, 72 h, read-out: EC50 SARS-Cov2, monoterpenes, infected Vero 76 cells, 0.02 MOI, 72 h, MTT, tested 1,000–4.91 μM, mean ± SD.
[7] abbreviates: read-out: EC50 SARS-Cov2, monoterpenes, infected Vero 76 cells, 0.02 MOI, 72 h, MTT, tested 1,000–4.91 μM, mean ± SD.

Entries after “also recorded” stand apart in the source; their conditions may differ. Where two headings read alike, the source gives them in different places.

We go through 14 compounds from article PMC9108200, “Antiviral Activity of Selected Lamiaceae Essential Oils and Their Monoterpenes Against SARS-Cov-2” (Frontiers in Pharmacology, 2022).

The EC50 is the concentration giving half of the maximal effect. As a reminder, the IC50 is the concentration that gives 50% inhibition.

On to `CC12CCC(CC1)C(C)(C)O2` [1,8-Cineol], for which the EC50 in data set [1] (setting [4]) was above 100 µM; in data set [1] (setting [5]) it was 129 ± 15 µM. In data set [2], this compound came in with an IC50 above 1000 µM.
In the case of `Cc1ccc(C(C)C)cc1O` [Carvacrol], the EC50 in data set [1] (setting [6]) was 86.5 ± 12.7 µM; in data set [1] (setting [7]), 80.2 ± 6.07 µM; in data set [1] (read-out: EC50 SARS-Cov2, monoterpenes, infected Vero 76 cells, 0.02 MOI, 72 h, MTT, tested 1,000–4.91 μM, mean ± SD, listed as carvacrol), below 100 µM. The IC50 in data set [3] was 455 ± 31.1 µM.
With `C=C(C)C1CC=C(C)C(=O)C1` (centres unmarked) [Carvone], the results for the EC50 in data set [1] (setting [4]) and in data set [1] (setting [5]) were 80.2 ± 6.07 µM and 86.5 ± 12.7 µM, respectively. The compound further had an IC50 in data set [2] above 1000 µM.
For the compound `CCN(CC)CCCC(C)Nc1ccnc2cc(Cl)ccc12` (centres unmarked) [Chloroquine, reference compound], in data set [1] (setting [4]), the EC50 amounted to 7.57 ± 1.18 µM. This compound also displayed an IC50 in data set [3] above 1000 µM.
`C=C(C)C1CC=C(C)CC1` (centres unmarked) [Limonene]: the EC50 in data set [1] (Severe acute respiratory syndrome coronavirus 2, Vero 76, 72 h, read-out: EC50 SARS-Cov2) was above 1000 µM. In addition, the IC50 in data set [2] was above 1000 µM.
Take `C=CC(C)(O)CCC=C(C)C` (centres unmarked) [Linalool]: the EC50 in data set [1] (setting [6]) was above 1000 µM. The “inhibition of SARS-CoV-2 by monoterpenes (in words)” value (from here on “inhibition … (in words)”) in data set [1] (infected Vero 76 cells) was “did not inhibit the SARS-CoV-2 at any significant rate; also recorded: Absence of activity”. The same compound gave an IC50 in data set [3] above 1000 µM.
Regarding `Cc1coc2c1CCC(C)C2` (centres unmarked) [Menthofuran], the results for the EC50 in data set [1] (setting [6]) and in data set [1] (setting [7]) were above 100 µM and 154 ± 16.3 µM, respectively. In addition, in data set [3], the IC50 worked out at 506 ± 76.4 µM.
Take `CC1CCC(C(C)C)C(O)C1` (centres unmarked) [Menthol]: the EC50 in data set [1] (setting [4]) is above 1000 µM. In addition, the “inhibition … (in words)” value in data set [1] (infected Vero 76 cells) was “did not inhibit the SARS-CoV-2 at any significant rate; also recorded: Absence of activity”. Further, in data set [2], the IC50 is above 1000 µM.
Turning to `CC(C)[C@@H]1CC[C@@H](C)CC1=O` [Menthone], in data set [1] (setting [4]), the EC50 was above 1000 µM. In addition, the “inhibition … (in words)” value in data set [1] (infected Vero 76 cells) is reported as “did not inhibit the SARS-CoV-2 at any significant rate; also recorded: Absence of activity”. The same compound yielded a half-inhibitory concentration (IC50) in data set [2] above 1000 µM.
For the compound `CC(C)=C1CC[C@@H](C)CC1=O` [Pulegone], the EC50 was above 100 µM in data set [1] (setting [6]) and 196 ± 17.1 µM in data set [1] (setting [7]). In data set [3], this compound had an IC50 above 1000 µM.
In the case of `CC1=CCC(O)(C(C)C)CC1` (centres unmarked) [Terpinen-4-ol], the EC50 in data set [1] (setting [4]) is above 1000 µM. In data set [1] (infected Vero 76 cells), the “inhibition … (in words)” value is “did not inhibit the SARS-CoV-2 at any significant rate; also recorded: Absence of activity”. Moreover, in data set [2], the IC50 is above 1000 µM.
Turning to `Cc1ccc(C(C)C)c(O)c1` [Thymol], the “rate of SARS-Cov-2 inhibition” value in data set [1] (infected Vero 76 cells, 72 h, concentration not given) stood at 58.54 ± 10.45%. Further, in data set [1] (infected Vero 76 cells), the “inhibition … (in words)” value is listed as “limited antiviral activity”. The same compound returned an IC50 in data set [2] of 509 ± 31.5 µM.
As to `Cc1ccc(C(C)C)cc1` [p-Cymene], in data set [1] (setting [4]), the EC50 is above 1000 µM. Moreover, the “inhibition … (in words)” value in data set [1] (infected Vero 76 cells) is “did not inhibit the SARS-CoV-2 at any significant rate; also recorded: Absence of activity”. In data set [2], this compound registered an IC50 above 1000 µM.
As for `CC1=CC[C@@H](C(C)(C)O)CC1` [α-Terpineol], the EC50 in data set [1] (setting [4]) is above 1000 µM. In addition, the “inhibition … (in words)” value in data set [1] (infected Vero 76 cells) is given as “did not inhibit the SARS-CoV-2 at any significant rate; also recorded: Absence of activity”. The IC50 in data set [2] is above 1000 µM.
